Reference: patent publication US10624883B2, “Pulmonary hypertension preventative or therapeutic agent containing component exhibiting selenoprotein P activity-inhibiting effect” (priority 2016, dated 2020)
Entries after “also recorded” stand apart in the source; their conditions may differ.

Key:
[1] = system: hypoxia-induced pulmonary hypertension mouse model; assay: Hypoxia-induced pulmonary hypertension mouse model (RVSP, right ventricular hypertrophy); assay type: in vivo; details: 10% O2 hypoxia, day 28
Procedure: Eight-week-old male C57BL6/J mice (n=8 per group) were administered sanguinarine (5 mg/kg/day, daily for 28 days, oral administration). A product available from SSX (Cat. No. 1845, Sanguinarine Chloride 10 mg) was used as sanguinarine. A preparation method for a test solution for a treatment group was as follows: sanguinarine was first dissolved at 100 μg/μl in 100% DMSO and the solution was further dissolved in phosphate buffered saline (PBS) so that the final concentration of sanguinarine was 1 μg/μl. A test solution for a control group was prepared by dissolving DMSO at the same concentration in PBS (1% DMSO).
From the test starting day, the mice were bred under a 10% O2 hypoxic environment to generate a hypoxia-induced pulmonary hypertension mouse model. From the same day, the test solutions for the control group and the treatment group were directly administered into the stomachs of the mice once daily through the use of a probe for mice. Regarding doses, the mice were measured for their body weights daily during a test period, and doses were calculated separately for the mice so as to achieve 5 mg/kg/day.
An administration period (=hypoxic breeding period) was 28 days.
After daily administration for 28 days, pulmonary hemodynamics and right ventricular hypertrophy were assessed at the end point (on day 28 after the start of hypoxic stimulation). The assessment of pulmonary hemodynamics was performed by directly measuring right ventricular systolic pressure (RVSP) with a pressure measurement catheter (Transonic Scisense) inserted into the right jugular vein. In addition, the assessment of right ventricular hypertrophy was performed by measuring right ventricular free wall (RV) weight in a dissected heart tissue to calculate its ratio to left ventricle plus septum (LV+Septum) weight (RV/(LV+Septum)). RV/(LV+Septum) serves as an indicator of right ventricular hypertrophy. A larger numerical value for RV/(LV+Septum) indicates a higher degree of right ventricular hypertrophy. In addition, in order to assess pulmonary vascular remodeling, staining for α-smooth muscle actin (α-SMA) in a lung tissue section was performed on day 28. Pulmonary vascular remodeling was assessed by performing immunostaining for α-smooth muscle actin (α-SMA) in a lung tissue section and quantitatively assessing the extent of muscularization (classified into three stages, i.e., non-muscularization, partial muscularization, and full muscularization) of α-SMA-positive distal pulmonary arteries. Specifically, in each section, about 100 pulmonary arteries having diameters of from 20 μm to 70 μm were each assessed for a double elastic lamina. In this assessment, a pulmonary artery in which a double elastic lamina including an internal elastic lamina and an external elastic lamina was visible for less than 50% of the entire periphery of the pulmonary artery was considered non-muscularized, a pulmonary artery in which the double elastic lamina was visible for 50% or more and less than 100% of the entire periphery of the pulmonary artery was considered partially muscularized, and a pulmonary artery in which the double elastic lamina was visible throughout the entire periphery of the pulmonary artery was considered fully muscularized.
Eight-week-old male C57BL6/J mice (n=8 per group) were administered cinobufotalin (5 mg/kg/day, daily for 28 days, intraperitoneal administration). A product available from Sigma (Cat. No. C1147-10MG, Cinobufotalin 10 mg) was used as cinobufotalin. A preparation method for a test solution for a treatment group was as follows: cinobufotalin was first dissolved at 30 μg/μl in 100% DMSO and the solution was further dissolved in PBS so that the final concentration of cinobufotalin was 0.3 μg/μl. A test solution for a control group was prepared by dissolving DMSO at the same concentration in PBS (1% DMSO). […]

[2] = system: selenoprotein P protein; assay: Western blotting of selenoprotein P protein in lungs of hypoxia-induced pulmonary hypertension mice; assay type: in vivo, mouse; details: C57BL/6 mice, 5 mg/kg/day oral, daily for 28 days, 10% hypoxia
Procedure: In addition, regarding sanguinarine, C57BL/6 mice (n=8 per group) were administered sanguinarine (5 mg/kg/day, daily for 28 days, oral administration). At the same time, the mice were bred under a 10% hypoxic environment. Thus, a hypoxia-induced pulmonary hypertension mouse model was generated and investigated.

[3] = system: Sugen/hypoxia rat model; assay: Sugen/hypoxia-induced pulmonary hypertension rat model (RVSP, RVH); assay type: in vivo; details: 5 mg/kg oral for 28 days, started day 21 after hypoxia+SU5416
Procedure: In this test, littermates or vehicle treatment groups were used as controls. A Sugen/hypoxia-induced hypertension rat model was used to assess pulmonary hypertension (PH) (Non-patent Literature 4). In order to assess the development of pulmonary hypertension, right ventricular systolic pressure (RVSP) and right ventricular hypertrophy (RVH) were measured (Non-patent Literatures 4 to 6).
For right heart catheterization, a 1.4-F (for rats) pressure measurement catheter (Transonic Scisense) was inserted into the right jugular vein and advanced into the right ventricle to measure RVSP (Non-patent Literature 7).
In the Sugen/hypoxia model, rats (Sprague-Dawley, male, 7- to 10-week-old) were injected subcutaneously with a VEGF-receptor inhibitor SU5416 (Sigma-Aldrich, St Louis, Mo.) (20 mg per kg body weight) under isoflurane anesthesia and were then exposed to hypoxia (10% O2) for 3 weeks. […] All data were analyzed using the PowerLab data acquisition system (AD Instruments, Bella Vista, Australia) and were averaged over 50 sequential beats (Non-patent Literatures 4 to 6).
Formaldehyde-fixed dry hearts were dissected and the right ventricular free wall (RV) was removed from the left ventricle (LV) and septum. The ratio of right ventricular free wall (RV) weight to left ventricle plus septum (LV+Septum) weight [RV/(LV+S)] was measured to assess the extent of RVH (Non-patent Literature 4). […]

[4] = system: SeP; assay: SeP protein levels in lungs of Sugen/hypoxia rats; assay type: in vivo, rat; details: 5 mg/kg oral for 28 days, hypoxia+SU5416 rats
Procedure: (§1) Rats (Sprague-Dawley, male, 7- to 10-week-old) were injected subcutaneously with a VEGF-receptor inhibitor SU5416 (Sigma-Aldrich) (20 mg per kg body weight) under isoflurane anesthesia and were then exposed to hypoxia (10% O2) for 3 weeks (hypoxia+SU5416). On day 21, the rats were randomized to be orally administered sanguinarine (5 mg per kg body weight) or vehicle under normoxia (21% O2) for 4 weeks. The vehicle administration group is expressed as vehicle controls. In addition, rats injected with saline on day 1 and exposed to normoxia for 7 weeks were used as (normoxic) controls. […] On day 49, the rats were anesthetized with isoflurane (1.0%) to measure RVSP, RVH, and pulmonary vascular remodeling. Thus, the development of PH was assessed.
FIG. 10(D) includes an image and graph for showing quantification of SeP protein levels in normoxic control rats or hypoxia+SU5416 rats with or without sanguinarine treatment. Data represent the mean±SEM. *p<0.05. Comparisons of parameters were performed with one-way or two-way ANOVA and Tukey's HSD test for multiple comparisons.

[5] = Body weight and food consumption in Sugen/hypoxia rats; assay type: in vivo, rat; details: 5 mg/kg oral for 28 days
Procedure: as §1
FIG. 10(B) is a graph for showing the time-course of body weight from the starting point of administration of sanguinarine or vehicle for 4 weeks in Sugen/hypoxia rats (n=12). Data represent the mean±SEM.

[6] = 1 mg/kg/day intraperitoneal, alternate days for 28 days
[7] = 5 mg/kg/day oral, daily for 28 days
[8] = 5 mg/kg/day intraperitoneal, daily for 28 days

## COC(=O)[C@]1(C)CC[C@]2(C)CC[C@]3(C)C4=CC=C5C(=CC(=O)C(O)=C5C)[C@]4(C)CC[C@@]3(C)[C@@H]2C1 [pristimerin, methyl (2R,4aS,6aS,12bR,14aS,14bR)-10-hydroxy-2,4a,6a,9,12b,14a-hexamethyl-11-oxo-1,2,3,4,4a,5,6,6a,11,12b,13,14,14a,14b-tetradecahydropicene-2-carboxylate]
[1]; [6]
  right ventricular hypertrophy (RV/(LV+Septum)) vs control group: significantly reduced
  right ventricular systolic pressure vs control group: significantly reduced

## C[n+]1cc2c3c(ccc2c2ccc4cc5c(cc4c21)OCO5)OCO3 [sanguinarine]
[2]
  selenoprotein P protein expression in the lungs vs control: significantly suppressed
[1]; [7]
  right ventricular hypertrophy (RV/(LV+Septum)) vs control group: significantly reduced
  right ventricular systolic pressure vs control group: significantly reduced
[3]
  RVH [RV/(LV+S)] vs vehicle controls: reduced
  RVSP vs vehicle controls: reduced
[4]
  SeP expression in the lungs: significantly reduced
[5]
  influence on body weight vs vehicle control: no significant differences; also recorded: no influence
  influence on food consumption vs vehicle control: no significant differences; also recorded: no influence

## CC(=O)OC1C(c2ccc(=O)oc2)C2(C)CCC3C(CCC4(O)CC(O)CCC34C)C23OC13 [cinobufotalin, [(1R,2R,2aR,3aS,5aS,7S,9aR,11aR)-5a,7-dihydroxy-9a,11a-dimethyl-1-(2-oxo-2H-pyran-5-yl)hexadecahydronaphtho[1′,2′:6,7]indeno[1,7a-b]oxiren-2-yl acetate]]
[1]; [8]
  right ventricular hypertrophy (RV/(LV+Septum)) vs control group: significantly reduced
  right ventricular systolic pressure vs control group: significantly reduced
